Series [1] is described as follows: Solubility in PBS with 15% β-cyclodextrin. The format is physicochemical. Particulars: 1 mM, 24 hours agitation, supernatant by HPLC; mean±SD. Here is the method:
xxxxx Furthermore, an additional effort was done to reevaluate those peptidomimetics from the first generation that were not soluble in the in vitro assay conditions or formed aggregates as described above when incubated with the RPE cells.
We then put these peptidomimetics under constant agitation for 24 hours. […] Data are expressed as the mean±SD.

Series [2] in a line: Solubility when diluted in cell medium (in vitro assay conditions). Particulars: cell culture assay conditions.
Series [3] concerns the target T1, HA-KRASG12V with C-RAF or with PI3K (Homo sapiens, UniProt P01116, G12V).
T1 construct: expressed in transfected cells; host or cells: HeLa cells, Lipofectamine 2000, plasmid pEF-HA-KRASG12V
In words: Co-immunoprecipitation of HA-KRASG12V with C-RAF or PI3K in Hela cells. It counts as cell-based. Particulars: 100 µM for 2 h, EGF 10 min, starved Hela cells expressing HA-KRASG12V. As to the method:
Immunoprecipitation was performed with anti-HA antibodies and Western blot of the bound (BO) and input (IN) fractions with anti-p110αPI3K and anti-C-RAF. Experiments were repeated at least three times.
Cells were seeded in a media containing 10% FBS for 24 h and were serum starved for the next 24 h. Afterwards, they were incubated with different concentrations of the compounds for 2 h. A successive treatment for 10 min with EGF (50 ng/mL; Sigma-Aldrich) was performed in order to activate cell signaling.
HeLa cells were transfected with pEF-HA-KRASG12V plasmid, obtained as described in C. Lopez-Alcala et al. (“Identification of essential interacting elements in K-Ras/calmodulin binding and its role in K-Ras localization.”; J. Biol. Chem. 2008; April 18; 283(16):10621-31. doi: 10.1074/jbc.M706238200. Epub 2008 Jan. 8. PMID: 18182391). Lipofectamine®2000 Transfection Reagent (Invitrogen) was used as a transfection method following the manufacturer's instructions.
Cells were transfected with pEF-HA-KRASG12V plasmid for 24 h and starved for the next 24 h before treatment with the peptides and EGF. Next, an IP with anti-HA antibody crosslinked to agarose beads was performed. […]

Series [4] has as its system pancreatic adenocarcinoma human cell lines (MPanc-96, HPAF-II, PA-TU-8902, SW1990, PA-TU 8988T, PANC-1). The format is cell-based. Particulars: 24 h. As to the method:
(§1) Cells cultured in 10% FCS were treated with compound (I) in a dose range from 0 to 25 µM and incubated for 24 h, when cell viability was determined by MTS assay. Experiment was repeated 3 times. Differences were assessed using one-way ANOVA and Tukey Multiple Comparisons Test and considered significant when p≤0.05.
(§2) 10,000 cells in 50 μL of 10% FBS-containing medium, were cultured for 24 h and then treated with the drugs (50 μL final volume) for a further 24 h in each well of a 96-well plate (100 μL final volume). MTS viability assay (CellTiter 96® Aqueous One Solution Cell Proliferation Assay, Promega G3580) was performed following the manufacturer's specifications. The absorbance of each well was measured with a multimode plate reader (Spark, Tecan) at 490 nm. The percentage of cell viability was calculated by dividing the absorbance of each well by the average absorbance of the control wells (which had no significant deviation when Student's t-test was applied).
We next incubated IPR-473 at several concentrations with different cancer cell lines and a normal cell line (-hTERT-RPE cells). Cell viability was measured by a MTS cell proliferation assay. […] Cells were placed in a 96-well plate culture containing 10% FBS (Bilogical Industries)-containing medium. (10000 cell per well). These cells were then cultured for 24 hours and then treated with IPR-473 at concentrations of 10 μM, 15 μM, 20 μM and 25 μM for a further 24 hours incubation.
The different cell lines used included human pancreatic cancer cells MPANC-96, human pancreatic adenocarcinoma cells HPAF-II, human pancreatic grade II adenocarcinoma PA-TU, human pancreatic ductaladenocarcinoma SW1990, human pancreas adenocarcinoma 8988-T and human pancreatic ductal carcinoma PANC-1. Each of these comprises a pancreatic tumor cell line. The control as stated was hTERT-RPE cells and that are not cancerigenous.

For a further series, the system named is hTERT-RPE cells. The format is cell-based, human. Particulars: at the concentrations of the tumor cell IC50 (approximately 20 μM), 24 h, MTS. Here is the method:
as §1, §2
We next incubated IPR-473 at several concentrations with different cancer cell lines and a normal cell line (-hTERT-RPE cells). Cell viability was measured by a MTS cell proliferation assay. […] Cells were placed in a 96-well plate culture containing 10% FBS (Bilogical Industries)-containing medium. (10000 cell per well). […]

Molecules are shown by their SMILES. pIC50: −log10 of the molar value. Square brackets hold non-standard residues; d marks the D form. Peptide text beside a SMILES is read from it. * marks the point of attachment. Chg = N[CH](C(=O)O)C1CCCCC1; X1 = C1CCC2(CC1)CCN(*)CC2; PhAc = O=C(Cc1ccccc1)*

Consider `CC(C)CC(NC(=O)C(Cc1c[nH]c2ccccc12)NC(=O)C(NC(=O)C(CCCCN)NC(=O)Cc1ccccc1)C1CCCCC1)C(=O)N1CCC2(CCCCC2)CC1` (centres unmarked) [IP-14-06] (PhAc-K[Chg]WL-X1; configuration not given here), for which the “Conc. in PBS β-cyclodextrin 15%” value in series [1] was determined as 844 ± 4 µM. Besides, the “Solubility when diluted in cell medium” value in series [2] is reported as “not soluble”.
For `CC(C)C[C@H](NC(=O)[C@H](CN)N(C)C(=O)CCN(C)C(=O)[C@H](Cc1ccc(-c2ccccc2)cc1)NC(=O)C(c1ccccc1)c1ccccc1)C(=O)N1CCCC1` [compound of formula (I), (S)-N-(3-(((S)-3-amino-1-((S)-4-methyl-1-oxo-1-(pyrrolidin-1-yl)pentan-2-ylamino)-1-oxopropan-2-yl)(methyl)amino)-3-oxopropyl)-3-(biphenyl-4-yl)-2-(2,2-diphenylacetamido)-N-methylpropanamide], the “PI3K and c-RAF1 interaction with KRAS (co-immunoprecipitation)” value in series [3] is “reduced PI3K and c-RAF1 interaction with KRAS”. The compound also had a pIC50 in series [4] of approximately 4.70. Besides, the normal cells affected result in the series on hTERT-RPE cells is listed as “less than 5%”.

The term pIC50 denotes −log10 of the IC50, conventionally taken in molar units. High values mean a small IC50, low ones a large IC50.

The record behind these values is US20240327456A1, “CANCER THERAPEUTICS” (UNIVERSITAT DE BARCELONA, priority 2021, published 2024).
